Molecules are shown by their SMILES.

The target of the first data set is T1, CDC25B (Homo sapiens, UniProt P30305).
T1 construct: Catalytic domain of CDC25B (aa 378-566) was expressed and produced in E. coli into a GST fusion protein; GST; made in house; host or cells: E. coli
T1 sequence (P30305 378-566 isoform P30305-2): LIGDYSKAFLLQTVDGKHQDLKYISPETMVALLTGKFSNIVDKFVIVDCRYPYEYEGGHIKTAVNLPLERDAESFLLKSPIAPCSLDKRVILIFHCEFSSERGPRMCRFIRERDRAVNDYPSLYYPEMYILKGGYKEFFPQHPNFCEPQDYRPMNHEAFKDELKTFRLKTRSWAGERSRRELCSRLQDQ
In words: CDC25B enzyme assay. In kind it is biochemical. The following applies: catalytic domain of CDC25B (aa 378-566) GST fusion, 20 μm FDP, 1 hour at room temperature, fluorescence. On the procedure: Catalytic domain of CDC25B (aa 378-566) was expressed and produced in E. coli into a GST fusion protein, which was used as zymogen. Enzyme assay was carried out on a 96-well plate, with the final reaction volume per well adjusted to 200 μL. 170 μL of a buffer solution (30 mM Tris buffer, pH 8.5, 75 mM NaCl, 0.67 mM EDTA, 1 mM DTT), 20 μL (0.2 μg) of CDC25B enzyme and 10 μL of the test compound dissolved in DMSO were added, so that the final concentration became 1 μg/mL CDC25B and 20 μm FDP. Measurement was made after culturing at room temperature for 1 hour. FDP and DTT were added to the buffer solution just before assay, so that a fresh status could be maintained. After 1 hour of culturing, fluorescence resultant from the enzymatic reaction was measured at 485 nm (excitation) and 538 nm (emission).
The screened compound was treated to a final concentration of 1, 2, 5 and 10 μm to obtain the % inhibition value. If the inhibitory effect was low (less than 50% at […]), the concentration of the compound was increased to 20 μm and the % inhibition value and the IC50 value were obtained.
The molecule `CC(C)(C)c1cc(-c2nn(-c3ccccc3)cc2/C=C2\SC(=O)NC2=O)cc(C(C)(C)C)c1O` [Compound 192] registered an IC50 of 3990 nM.

In turn, `COc1ccc(-c2nn(-c3ccccc3)cc2/C=C2\SC(=O)NC2=O)cc1C(C)C` [Compound 136] displayed an IC50 of 2060 nM.

Consider `CCOc1ccc(-c2nn(-c3ccccc3)cc2C=C2SC(=O)NC2=O)cc1I` [Compound 121], for which the midpoint of inhibition, the IC50, lay at 2600 nM.

For `COc1c(Br)cc(-c2nn(-c3ccccc3)cc2/C=C2\SC(=O)NC2=O)cc1Br` [Compound 145], the IC50 is 1840 nM.

Take `CCOc1c(Br)cc(-c2nn(-c3ccccc3)cc2/C=C2\SC(=O)N(CC)C2=O)cc1Br` [Compound 153]: the IC50 is 1360 nM.

In turn, `CCOc1ccc(-c2nn(-c3ccccc3)cc2C=C2SC(=O)NC2=O)cc1Br` [Compound 77, 5-[3-(3-bromo-4-ethoxy-phenyl)-1-phenyl-1H-pyrazol-4-ylmethylene]-thiazolidine-2,4-dione] registered an IC50 of 5650 nM.

`O=C1NC(=O)/C(=C/c2cn(-c3ccccc3)nc2-c2ccc(OC(F)F)c(OCC3CC3)c2)S1` [Compound 52]: the IC50 is 2830 nM.

Regarding `CCCN1C(=O)S/C(=C\c2cn(-c3ccccc3)nc2-c2ccc(OCC)c(I)c2)C1=O` [Compound 118], the IC50 was found to be 9250 nM.

In turn, `C#CCOc1ccc(-c2nn(-c3ccccc3)cc2/C=C2\SC(=O)NC2=O)cc1Br` [Compound 100] had an IC50 of 2980 nM.

In turn, `CC(C)Oc1cc(OC(C)C)cc(-c2nn(-c3ccccc3)cc2/C=C2\SC(=O)NC2=O)c1` [Compound 30] displayed an IC50 of 5740 nM.

`O=C1NC(=O)/C(=C/c2cn(-c3ccccc3)nc2-c2cc(OCc3ccccc3)cc(OCc3ccccc3)c2)S1` [Compound 62] gave an IC50 of 230 nM.

The molecule `CCCOc1ccc(-c2nn(-c3ccccc3)cc2/C=C2\SC(=O)N(CCC)C2=O)cc1Br` [Compound 85] registered an IC50 of 2020 nM.

Molecule `C=CCOc1c(Br)cc(-c2nn(-c3ccccc3)cc2/C=C2\SC(=O)NC2=O)cc1Br` [Compound 164] returned an IC50 of 170 nM.

Molecule `CCOc1ccc(-c2nn(-c3ccccc3)cc2/C=C2\SC(=O)N(CC)C2=O)cc1I` [Compound 117] gave an IC50 of 590 nM.

With `CCCOc1ccc(-c2nn(-c3ccccc3)cc2/C=C2\SC(=O)NC2=O)cc1C(C)C` [Compound 141], the IC50 turned out to be 2240 nM.

As to `O=C1NC(=O)/C(=C/c2cn(-c3ccccc3)nc2-c2cc(OC3CCCC3)cc(OC3CCCC3)c2)S1` [Compound 41], the IC50 stood at 540 nM.

On to `COc1c(Cl)cccc1-c1nn(-c2ccccc2)cc1/C=C1\SC(=O)NC1=O` [Compound 66], for which the IC50 amounted to 10600 nM.

In the case of `O=C1NC(=O)C(=Cc2cn(-c3ccccc3)nc2-c2cc(F)cc(F)c2)S1` [Compound 58, 5-[3-(3,5-difluoro-phenyl)-1-phenyl-1H-pyrazol-4-ylmethylene]-thiazolidine-2,4-dione], the midpoint of inhibition, the IC50, lay at 5790 nM.

For `O=C1NC(=O)/C(=C/c2cn(-c3ccccc3)nc2-c2cccc(C(F)(F)F)c2)S1` [Compound 16, 5-[3-(3-trifluoromethyl)-1-phenyl-1H-pyrazol-4-ylmethylene]-thiazolidine-2,4-dione], the IC50 was determined as 230 nM.

`COc1ccc(-c2nn(-c3ccccc3)cc2/C=C2\SC(=O)NC2=O)cc1I` [Compound 111]: it took 3250 nM to reach half-maximal inhibition (IC50).

Regarding `CCCOc1c(Cl)cccc1-c1nn(-c2ccccc2)cc1/C=C1\SC(=O)NC1=O` [Compound 70], the midpoint of inhibition, the IC50, lay at 4050 nM.

`CCOc1c(Cl)cccc1-c1nn(-c2ccccc2)cc1/C=C1\SC(=O)N(CC)C1=O` [Compound 69] returned an IC50 of 7200 nM.

`O=C1NC(=O)/C(=C/c2cn(-c3ccccc3)nc2-c2ccc(OCC3CC3)c(Br)c2)S1` [Compound 94] had an IC50 of 1630 nM.

`CCCOc1ccc(-c2nn(-c3ccccc3)cc2/C=C2\SC(=O)NC2=O)cc1Br` [Compound 82] yielded an IC50 of 2810 nM.

`CCN1C(=O)SC(=Cc2cn(-c3ccccc3)nc2-c2ccccc2Cl)C1=O` [Compound 2] displayed an IC50 of 11400 nM.

In the case of `CCCOc1cc(OCCC)cc(-c2nn(-c3ccccc3)cc2/C=C2\SC(=O)NC2=O)c1` [Compound 25], the concentration for half-maximal inhibition (IC50) was 1860 nM.

As for `O=C1NC(=O)/C(=C/c2cn(-c3ccccc3)nc2-c2cc(OCC3CC3)cc(OCC3CC3)c2)S1` [Compound 35], the IC50 stood at 1520 nM.

`C=CCOc1ccc(-c2nn(-c3ccccc3)cc2/C=C2\SC(=O)NC2=O)cc1Br` [Compound 88] came in with an IC50 of 2210 nM.

As for `C=CCOc1ccc(-c2nn(-c3ccccc3)cc2/C=C2\SC(=O)N(CC=C)C2=O)cc1I` [Compound 132], half-maximal inhibition (IC50) required 3600 nM.

Turning to `COc1c(C(C)C)cc(-c2nn(-c3ccccc3)cc2/C=C2\SC(=O)NC2=O)cc1C(C)C` [Compound 184], it took 3660 nM to reach half-maximal inhibition (IC50).

`CCOc1c(Br)cc(-c2nn(-c3ccccc3)cc2/C=C2\SC(=O)NC2=O)cc1Br` [Compound 151] showed an IC50 of 1400 nM.

`O=C1NC(=O)C(=Cc2cn(-c3ccccc3)nc2-c2cccc(Br)c2)S1` [Compound 3] gave an IC50 of 9450 nM.

As to `CCCOc1c(Br)cc(-c2nn(-c3ccccc3)cc2/C=C2\SC(=O)NC2=O)cc1Br` [Compound 163], the IC50 worked out at 1500 nM.

On to `CCOc1ccc(-c2nn(-c3ccccc3)cc2C=C2SC(=O)NC2=O)cc1I` [Compound 115], for which half-maximal inhibition (IC50) was put at 570 nM.

As to `CCCOc1ccc(-c2nn(-c3ccccc3)cc2/C=C2\SC(=O)NC2=O)cc1I` [Compound 122], half-maximal inhibition (IC50) required 360 nM.

`CN1C(=O)S/C(=C\c2cn(-c3ccccc3)nc2-c2cccc([N+](=O)[O-])c2)C1=O` [Compound 15, 5-[3-(3-nitro)-1-phenyl-1H-pyrazol-4-ylmethylene]-3-methyl-thiazolidine-2,4-dione]: the IC50 came out at 8280 nM.

For the molecule `C#CCN1C(=O)S/C(=C\c2cn(-c3ccccc3)nc2-c2ccc(OCC=C)c(I)c2)C1=O` [Compound 133], the IC50 amounted to 4990 nM.

Regarding `CCCOc1ccc(-c2nn(-c3ccccc3)cc2/C=C2\SC(=O)NC2=O)cc1C(C)(C)C` [Compound 142], the IC50 turned out to be 1480 nM.

Molecule `CCN1C(=O)S/C(=C\c2cn(-c3ccccc3)nc2-c2ccccc2Br)C1=O` [Compound 5] showed an IC50 of 8960 nM.

For `CCOc1c(Cl)cccc1-c1nn(-c2ccccc2)cc1/C=C1\SC(=O)NC1=O` [Compound 67], the IC50 turned out to be 3410 nM.

As to `CCN1C(=O)S/C(=C\c2cn(-c3ccccc3)nc2-c2cc(Br)c(OCC3CC3)c(Br)c2)C1=O` [Compound 173], the IC50 stood at 2350 nM.

For the molecule `C#CCN1C(=O)S/C(=C\c2cn(-c3ccccc3)nc2-c2cc(Br)c(OCC=C)c(Br)c2)C1=O` [Compound 169], the IC50 was 7140 nM.

Molecule `C=CCN1C(=O)S/C(=C\c2cn(-c3ccccc3)nc2-c2cc(Br)c(OC(F)F)c(Br)c2)C1=O` [Compound 182] displayed an IC50 of 13600 nM.

With `O=C1NC(=O)/C(=C/c2cn(-c3ccc([N+](=O)[O-])cc3)nc2-c2cc(OCc3ccccc3)cc(OCc3ccccc3)c2)S1` [Compound 65], the IC50 came out at 210 nM.

`CCCOc1c(C(C)C)cc(-c2nn(-c3ccccc3)cc2/C=C2\SC(=O)NC2=O)cc1C(C)C` [Compound 190]: inhibition was half-maximal at 1090 nM (IC50).

As to `O=C1NC(=O)/C(=C/c2cn(-c3ccccc3)nc2-c2cc(Br)c(OC(F)F)c(Br)c2)S1` [Compound 178], the IC50 was found to be 710 nM.

For a further data set, the system named is C33A human uterine cancer cell line.
Assay: not given
The note with it: mouse, in vivo.
On to `N.N.[Cl][Pt][Cl]` [cisplatin, reference compound], for which the “negative responses (reduced motion, lack of appetite)” value is listed as “reduced motion or lack of appetite”.

These data come from patent US7718681B2, “5-(1,3-Diaryl-1H-pyrazol-4-ylmethylene)-thiazolidine,2,4-dione derivatives useful as anticancer agent” (Korea Research Institute of Chemical Technology, priority 2005, dated 2010).
